According to US8841316B2, “Multicomponent crystalline system of rosuvastatin calcium salt and vanillin” (BASF SE, priority 2011, dated 2014):

Experiment: Water vapor sorption (water content under humidity)
Format: physicochemical

In the case of “bis[(E)-7-[4-(4-fluorophenyl)-6-isopropyl-2-[methyl(methylsulfonyl)amino]pyrimidin-5-yl](3R,5S)-3,5-dihydroxyhept-6-enoic acid] calcium salt [Crystal form A]”, the “Water vapor sorption: water content after 2 h at 50% r.h.” value (after 2 h at 50% r.h.) is reported as 6.2% and the “Water vapor sorption: water content after 5 h at 95% r.h.” value (after 5 h at 95% r.h.) is reported as 10.1%.
